Source: ChEMBL document CHEMBL1142813, “Synthesis of tripeptides as potent Yersinia protein tyrosine phosphatase inhibitors” (Bioorg Med Chem Lett, 2005)

Experiments:
[1] = biological target: T1, Tyrosine-protein phosphatase non-receptor type 1 (Homo sapiens, UniProt P18031); assay: Inhibitory concentration against human PTP1B expressed in Escherichia coli BL21 cells
T1 sequence (P18031 whole entry): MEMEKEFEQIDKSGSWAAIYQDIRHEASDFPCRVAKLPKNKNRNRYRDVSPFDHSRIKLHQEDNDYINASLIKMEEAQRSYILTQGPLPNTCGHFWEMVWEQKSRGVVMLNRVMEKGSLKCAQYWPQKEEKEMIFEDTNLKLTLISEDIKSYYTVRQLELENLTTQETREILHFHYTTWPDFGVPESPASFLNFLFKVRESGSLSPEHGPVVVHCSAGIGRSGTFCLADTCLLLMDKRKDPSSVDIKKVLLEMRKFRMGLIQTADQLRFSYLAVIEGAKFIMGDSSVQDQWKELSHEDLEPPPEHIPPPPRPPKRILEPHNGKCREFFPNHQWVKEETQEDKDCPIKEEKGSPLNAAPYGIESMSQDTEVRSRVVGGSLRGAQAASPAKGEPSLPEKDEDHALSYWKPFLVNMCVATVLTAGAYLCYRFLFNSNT

[2] = biological target: Secreted effector protein (Yersinia pestis, UniProt O68720); assay: Inhibitory concentration against Yersinia pestis YopH expressed in Escherichia coli BL21 cells
Sequence of Secreted effector protein (O68720 whole entry): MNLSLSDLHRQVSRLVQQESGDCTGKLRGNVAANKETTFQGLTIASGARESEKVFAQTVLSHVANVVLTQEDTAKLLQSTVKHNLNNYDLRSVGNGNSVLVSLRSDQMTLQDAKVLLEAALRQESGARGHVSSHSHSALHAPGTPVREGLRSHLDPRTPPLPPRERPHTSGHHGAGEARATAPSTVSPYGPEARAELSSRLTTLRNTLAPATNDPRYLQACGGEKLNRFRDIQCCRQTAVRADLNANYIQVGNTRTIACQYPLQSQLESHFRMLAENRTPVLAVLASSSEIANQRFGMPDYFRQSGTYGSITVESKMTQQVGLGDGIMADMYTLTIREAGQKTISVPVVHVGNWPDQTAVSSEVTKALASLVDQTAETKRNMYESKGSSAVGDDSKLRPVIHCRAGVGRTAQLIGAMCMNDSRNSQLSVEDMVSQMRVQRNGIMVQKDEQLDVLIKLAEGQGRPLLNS

SMILES | IC50 [1] [µM] | IC50 [2] [µM]
Cc1ccc2c(c1)CCN2CCC(=O)N[C@@H](CCC(=O)OCc1ccccc1)C(=O)N[C@@H](Cc1ccc(OCC(=O)O)cc1)C(=O)C[C@@H](CC(C)C)C(N)=O | 4.3 | 5.6
CC(C)C[C@H](CC(=O)[C@H](Cc1ccc(OCC(=O)O)cc1)NC(=O)[C@H](CCC(=O)OCc1ccccc1)NC(=O)COc1cccc2ccccc12)C(N)=O | 13 | 20
CC(C)C[C@H](CC(=O)[C@H](Cc1ccc(OCC(=O)O)cc1)NC(=O)[C@H](CCC(=O)OCc1ccccc1)NC(=O)CCCc1c[nH]c2ccccc12)C(N)=O | > 100 | > 100
CC(C)C[C@H](CC(=O)[C@H](Cc1ccc(OCC(=O)O)cc1)NC(=O)[C@H](CCC(=O)OCc1ccccc1)NC(=O)CCc1c[nH]c2ccccc12)C(N)=O | > 100 | > 100
CC(C)C[C@H](CC(=O)[C@H](Cc1ccc(OCC(=O)O)cc1)NC(=O)[C@H](CCC(=O)OCc1ccccc1)NC(=O)OCC1c2ccccc2-c2ccccc21)C(N)=O | 2.9 | 1.8
COc1ccc(Cn2nnc(CC(=O)N[C@@H](CCC(=O)OCc3ccccc3)C(=O)N[C@@H](Cc3ccc(OCC(=O)O)cc3)C(=O)C[C@@H](CC(C)C)C(N)=O)n2)cc1 | > 100 | > 100
CC(C)C[C@H](CC(=O)[C@H](Cc1ccc(C(F)(F)C(=O)O)cc1)NC(=O)[C@H](CCC(=O)OCc1ccccc1)NC(=O)OCC1c2ccccc2-c2ccccc21)C(N)=O | 3.1 | 2.5
CC(C)C[C@H](CC(=O)[C@H](Cc1ccc(OC(F)(F)C(=O)O)cc1)NC(=O)[C@H](CCC(=O)OCc1ccccc1)NC(=O)OCC1c2ccccc2-c2ccccc21)C(N)=O | 3.8 | 1.9
CC(C)C[C@H](CC(=O)[C@H](Cc1ccc(OCC(=O)O)cc1)NC(=O)[C@H](CNC(=O)OCc1ccccc1)NC(=O)OCC1c2ccccc2-c2ccccc21)C(N)=O | 4.3 | 2.1
CC(C)C[C@H](NC(=O)[C@H](Cc1ccc(OCC(=O)O)cc1)NC(=O)C(CNC(=O)OCc1ccccc1)CNC(=O)OCc1ccccc1)C(N)=O | 2.8 | 4
Cc1cn(CC(=O)N[C@@H](CCC(=O)OCc2ccccc2)C(=O)N[C@@H](Cc2ccc(OCC(=O)O)cc2)C(=O)C[C@@H](CC(C)C)C(N)=O)c(=O)[nH]c1=O | > 100 | > 100
CC(C)C[C@H](CC(=O)[C@H](Cc1ccc(CC(=O)O)cc1)NC(=O)[C@H](CCC(=O)OCc1ccccc1)NC(=O)OCC1c2ccccc2-c2ccccc21)C(N)=O | 4.6 | 2.4
CC(C)C[C@H](CC(=O)[C@H](Cc1ccc(OCC(=O)O)cc1)NC(=O)[C@H](CCC(=O)OCc1ccccc1)NC(=O)COc1ccc2ccccc2c1)C(N)=O | 23 | 30
CC(C)C[C@H](CC(=O)[C@H](Cc1ccc(OCC(=O)O)cc1)NC(=O)[C@H](CCC(=O)OCc1ccccc1)NC(=O)CCc1cccc2ccccc12)C(N)=O | 12 | 18
CC(C)C[C@H](CC(=O)[C@H](Cc1ccc(OCC(=O)O)cc1)NC(=O)[C@H](CCC(=O)OCc1ccccc1)NS(=O)(=O)CCc1cccc2ccccc12)C(N)=O | 24 | 22
CC(C)C[C@H](CC(=O)[C@H](Cc1ccc(OCC(=O)O)cc1)NC(=O)[C@H](CCC(=O)OCc1ccccc1)NC(=O)CCc1c2ccccc2cc2ccccc12)C(N)=O | 6.4 | 12
